Reference: ChEMBL document CHEMBL3046432, “Synthesis of new series of pyrimido[4,5-b][1,4] benzothiazines as 15-lipoxygenase inhibitors and study of their inhibitory mechanism” (Med Chem Res, 2013)

Legend:
[1] = target: T1, Seed linoleate 13S-lipoxygenase-1 (Glycine max, UniProt P08170); assay: Inhibition of Glycine max (soybean) 15-lipoxygenase activity assessed as decrease in peroxide formation using linoleic acid as substrate preincubated with enzyme for 5 min prior to substrate addition measured after 7 min by MBTH-DMAB method
T1 sequence (P08170 whole entry): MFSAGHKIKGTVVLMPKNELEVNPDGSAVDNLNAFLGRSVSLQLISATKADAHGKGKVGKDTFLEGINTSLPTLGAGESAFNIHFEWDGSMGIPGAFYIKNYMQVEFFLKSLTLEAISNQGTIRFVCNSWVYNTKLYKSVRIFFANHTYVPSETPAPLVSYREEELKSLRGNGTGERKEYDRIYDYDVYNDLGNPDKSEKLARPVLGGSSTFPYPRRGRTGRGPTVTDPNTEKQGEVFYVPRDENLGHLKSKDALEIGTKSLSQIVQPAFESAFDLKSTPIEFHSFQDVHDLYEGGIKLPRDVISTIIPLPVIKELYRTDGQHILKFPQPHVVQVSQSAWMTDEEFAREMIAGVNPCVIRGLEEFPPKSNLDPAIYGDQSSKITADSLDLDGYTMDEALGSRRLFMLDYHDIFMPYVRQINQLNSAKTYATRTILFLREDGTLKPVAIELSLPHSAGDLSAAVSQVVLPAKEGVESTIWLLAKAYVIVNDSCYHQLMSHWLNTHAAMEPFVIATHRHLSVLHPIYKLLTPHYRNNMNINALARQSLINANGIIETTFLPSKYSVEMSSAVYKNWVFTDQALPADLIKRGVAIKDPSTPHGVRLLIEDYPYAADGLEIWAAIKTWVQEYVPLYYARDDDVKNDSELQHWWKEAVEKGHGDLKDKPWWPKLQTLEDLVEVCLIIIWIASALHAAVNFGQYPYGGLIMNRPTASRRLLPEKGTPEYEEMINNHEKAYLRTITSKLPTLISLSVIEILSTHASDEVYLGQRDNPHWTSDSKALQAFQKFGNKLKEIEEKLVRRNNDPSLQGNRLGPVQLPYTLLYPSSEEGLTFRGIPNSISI

[2] = tested on: Radical scavenging activity; assay: Antioxidant activity assessed as inhibition of DPPH radical […]; type: functional
[3] = target: T1, Seed linoleate 13S-lipoxygenase-1; assay: Inhibition of Glycine max (soybean) 15-lipoxygenase activity using linoleic acid as substrate by MBTH-DMAB method

| Ki [1] | IC50 [2] | IC50 [3] | Compound |
| --- | --- | --- | --- |
| 1.84 µM | 311 µM | 611 µM | CCCc1nc(N2CCCC2)nc2c1Nc1ccccc1S2 |
| 1.16 µM | 357 µM | 404 µM | CCCc1nc(N2CCN(c3ccccc3)CC2)nc2c1Nc1ccccc1S2 |
| 0.198 µM | 69.6 µM | 19.5 µM | Cc1nc(N2CCN(C)CC2)nc2c1Nc1ccccc1S2 |
| 0.486 µM | 599 µM | 86.3 µM | CCCc1nc(N2CCC(C)CC2)nc2c1Nc1ccccc1S2 |
| 0.662 µM | 621 µM | 121 µM | CCCc1nc(N2CCCCC2)nc2c1Nc1ccccc1S2 |
| 2.01 µM | 669 µM | 726 µM | CCCc1nc(N2CCOCC2)nc2c1Nc1ccccc1S2 |
| 0.192 µM | 17.3 µM | 8.9 µM | CCCc1nc(N2CCN(C)CC2)nc2c1Nc1ccccc1S2 |
